Experimental data taken from EP0565377B1, “Therapeutic agents for use in the treatment of Parkinson's Disease” (Kyowa Hakko Kogyo Co., Ltd., priority 1992, dated 1993).
Read-outs that look alike come from different tables or passages of the source.

Experiments:
[1] = system: Haloperidol-Induced Catalepsy; test: Effect on haloperidol-induced catalepsy; format: in vivo, male ddY mice; conditions: test compound 10 mg/kg orally; for inhibition in vivo at 10 mg/kg: Mus musculus, po, 1 h, rate of decrease in total score based on control group, read-out: Remission Rate (%); for Number of the Animals Showing Remission: of 5 mice, catalepsy score not more than 4 points; for Total Score: total catalepsy score of 5 mice (25 points at the full)
Protocol: The experiment was performed by using several groups of 5-weeks-old male ddY mice (weighing 22 to 24 g, Japan SLC), each group consisting of 5 mice. Haloperidol (Janssen Pharmaceutica) suspended in 0.3% CMC was intraperitoneally administered to each mouse at a dose of 1.0 mg/kg. Test compounds were suspended in 0.3% CMC or in injectable distilled water (Otsuka Pharmaceutical Co., Ltd.) containing Tween 80. L-DOPA (Kyowa Hakko Kogyo Co., Ltd.) and benserazide hydrochloride (Kyowa Hakko Kogyo Co., Ltd.) were suspended in 0.3% CMC. One hour after the haloperidol administration, the test compound suspensions and the control suspension [0.3% CMC or injectable distilled water (Otsuka Pharmaceutical Co., Ltd.) containing Tween 80] containing no test compound were orally administered to separate groups of the mice (0.1 ml per 10 g of body weight). One hour after the administration of the test compound, the forelimbs of each mouse and subsequently the hindlimbs of the same mouse were placed on a 4.5 cm-high, 1.0 cm-wide bar and catalepsy was estimated. All of the test compounds were orally administered at a dose of 10 mg/kg, and L-DOPA (100 mg/kg) and benserazide (25 mg/kg) were intraperitoneally administered together as a control experiment. The catalepsy score and the standard of judgment are shown below.
The effect of the compounds was evaluated by the total of the catalepsy scores of five mice in each group (25 points at the full). The groups wherein the total score was not more than 20 points were estimated to be effective. The number of the animals showing remission against catalepsy is the number of the mice for which the catalepsy score was not more than 4 points.

[2] = system: dd-strain male mice; test: Acute toxicity test (minimum lethal dose, oral); format: in vivo; conditions: oral administration, mortality seven days after administration, three mice per group
Protocol: Test compounds were orally administered to groups of dd-strain male mice weighing 20±1 g, each group consisting of three mice. Seven days after the administration, minimum lethal dose (MLD) of each compound was determined by observing the mortality.

[3] = system: Parkinson's Disease Model in Mouse; test: Effect on locomotor activity of Parkinson's disease model in mouse (MPTP-treated mice, Automex-II horizontal activity); format: in vivo, male C57BL/6 mice; conditions: Table 3-5, test compound 40 mg/kg orally, normal control 2252 ±210.1, MPTP control 18 ± 8.4
Protocol: 1-Methyl-4-phenyl-1,2,3,6-tetrahydropyridine (MPTP) causes symptoms of Parkinson's disease in humans [Science, 219, 979 (1983)]. It is reported that an experimental Parkinson's disease model was obtained by administering MPTP to mice [Science, 224, 1451 (1984)]. If a compound is effective on the experimental Parkinson's disease model in mouse, the compound can be expected to have a therapeutic effect on Parkinson's disease.
The experiment was performed by using several groups of 7-weeks-old male C57BL/6 mice (weighing 20 to 21 g, Japan SLC), each group consisting of 8 mice. MPTP (Aldrich Chemical Co., Inc.) dissolved in a physiological saline solution (Otsuka Pharmaceutical Co., Ltd.) was intraperitoneally administered to each mouse once a day for five consecutive days at a dose of 30 mg/kg. A test compound was suspended in injectable distilled water (Otsuka Phamaceutical Co., Ltd.) containing Tween 80 [polyoxyethylene (20) sorbitan monooleate]. L-DOPA (Kyowa Hakko Kogyo Co., Ltd.) was suspended in 0.3% CMC (sodium carboxylmethylcellulose). Thirty minutes after the final MPTP administration, the test compound suspensions and the control suspension [injectable distilled water (Otsuka Pharmaceutical Co., Ltd.) containing Tween 80] containing no test compound were orally administered to separate groups of the mice (0.1 ml per 10 g of body weight). The amount of active movements (horizontal activity) of each mouse was measured by using Automex-II (Columbus Instruments International Corp.) for the period of 30 minutes starting 30 minutes after the administration of the test compound. The effect of the compounds was evaluated by comparing the average counts of the active movements of the test compound-administered groups with those of the control groups. A significant difference test was performed by using Student's t-test.

[4] = Table 4-2, 0.3% Tween 80 control 25

| Structure (SMILES) | inhibition in vivo at 10 mg/kg ([1]; Table 4-1) | Number of the Animals Showing Remission ([1]; Table 4-1) | Total Score ([1]; Table 4-1, 0.3% CMC control 25) | MLD [2] | inhibition in vivo at 10 mg/kg ([1]; Table 4-2) | Number of the Animals Showing Remission ([1]; Table 4-2) | Total Score [1, 4] | Amount of Active Movements (average count ± S.E.M) [3] |
| --- | --- | --- | --- | --- | --- | --- | --- | --- |
| CCCn1c(=O)c2nc(/C=C/c3ccc(OC)c(OC)c3OC)[nH]c2n(CCC)c1=O [Compound 20, (E)-1,3-dipropyl-8-(2,3,4-trimethoxystyryl)xanthine] | 24% | 3 | 19 points | > 300 mg/kg |  |  |  |  |
| CCCn1c(=O)c2c(nc(/C=C/c3ccc(C)c(C)c3)n2C)n(CCC)c1=O [Compound 31, (E)-8-(3,4-dimethylstyryl)-7-methyl-1,3-dipropylxanthine] |  |  |  | > 100 mg/kg | 28% | 4 | 18 points |  |
| CCCn1c(=O)c2[nH]c(/C=C/c3ccc4c(c3)OCCO4)nc2n(CCC)c1=O [Compound 16, (E)-8-[2-(1,4-benzodioxan-6-yl)vinyl]-1,3-dipropylxanthine] | 20% | 4 | 20 points | > 300 mg/kg |  |  |  |  |
| C=CCn1c(=O)c2c(nc(/C=C/c3cc(OC)c(OC)c(OC)c3)n2C)n(CC=C)c1=O [Compound 7, (E)-1,3-diallyl-7-methyl-8-(3,4,5-trimethoxystyryl)xanthine] | 48% | 4 | 13 points | > 300 mg/kg |  |  |  |  |
| CCCn1c(=O)c2[nH]c(/C=C/c3ccc4c(c3)OCO4)nc2n(CCC)c1=O [Compound 18, (E)-8-(3,4-methylenedioxystyryl)-1,3-dipropylxanthine] | 20% | 4 | 20 points | > 300 mg/kg |  |  |  |  |
| CCCn1c(=O)c2nc(/C=C/c3cc(OC)c(OC)c(OC)c3)[nH]c2n(CCC)c1=O [Compound 9, (E)-1,3-dipropyl-8-(3,4,5-trimethoxystyryl) xanthine] |  |  |  | > 300 mg/kg |  |  |  | 41 ± 18.0 count |
| CCCn1c(=O)c2c(nc(/C=C/c3cc(OC)c(OC)c(OC)c3)n2C)n(CCC)c1=O [Compound 5, (E)-7-methyl-1,3-dipropyl-8-(3,4,5-trimethoxystyryl)xanthine] | 28% | 4 | 18 points | > 300 mg/kg |  |  |  |  |
| CCCn1c(=O)c2c(nc(/C=C/c3ccc(OC)cc3OC)n2C)n(CCC)c1=O [Compound 25, (E)-8-(2,4-dimethoxystyryl)-7-methyl-1,3-dipropylxanthine] |  |  |  | > 300 mg/kg | 52% | 5 | 12 points |  |
| COc1cc(/C=C/c2nc3c([nH]2)c(=O)n(C)c(=O)n3C)cc(OC)c1OC [Compound 10, (E)-8-(3,4,5-trimethoxystyryl)theophylline] |  |  |  | > 300 mg/kg |  |  |  | 32 ± 21.2 count |
| CCCn1c(=O)c2[nH]c(/C=C/c3ccc(OC)cc3OC)nc2n(CCC)c1=O [Compound 24, (E)-8-(2,4-dimethoxystyryl)-1,3-dipropylxanthine] | 24% | 4 | 19 points | > 100 mg/kg |  |  |  |  |
| CCCn1c(=O)c2c(nc(/C=C/c3ccc(OC)c(C)c3C)n2C)n(CCC)c1=O [Compound 13, (E)-8-(4-methoxy-2,3-dimethylstyryl)-7-methyl-1,3-dipropylxanthine] | 80% | 5 | 5 points | > 300 mg/kg |  |  |  |  |
| CCCn1c(=O)c2c(nc(/C=C/c3ccc4c(c3)OCO4)n2C)n(CCC)c1=O [Compound 19, (E)-7-methyl-8-(3,4-methylenedioxystyryl)-1,3-dipropylxanthine] | 24% | 3 | 19 points | > 300 mg/kg |  |  |  |  |
| CCCn1c(=O)c2c(nc(/C=C/c3ccc(OC)c(C)c3OC)n2C)n(CCC)c1=O [Compound 15, (E)-8-(2,4-dimethoxy-3-methylstyryl)-7-methyl-1,3-dipropylxanthine] | 24% | 4 | 19 points | > 300 mg/kg |  |  |  |  |
| CCCn1c(=O)c2c(nc(/C=C/c3ccc(O)c(O)c3)n2C)n(CCC)c1=O [Compound 53, (E)-8-(3,4-dihydroxystyryl)-7-methyl-1,3-dipropylxanthine] |  |  |  | > 100 mg/kg | 20% | 4 | 20 points |  |
| CCCn1c(=O)c2[nH]c(/C=C/c3cc(Br)c(OC)c(OC)c3)nc2n(CCC)c1=O [Compound 59, (E)-8-(3-bromo-4,5-dimethoxystyryl)-1,3-dipropylxanthine] |  |  |  | > 300 mg/kg | 24% | 5 | 19 points |  |
| CCCn1c(=O)c2c(nc(/C=C/c3ccc(OCC)cc3)n2C)n(CCC)c1=O [Compound 48, (E)-8-(4-ethoxystyryl)-7-methyl-1,3-dipropylxanthine] |  |  |  | > 100 mg/kg | 76% | 5 | 6 points |  |
| CCCOc1ccc(/C=C/c2nc3c(c(=O)n(CCC)c(=O)n3CCC)n2C)cc1 [Compound 50, (E)-7-methyl-8-(4-propoxystyryl)-1,3-dipropylxanthine] |  |  |  | > 100 mg/kg | 24% | 3 | 19 points |  |
| CCCn1c(=O)c2[nH]c(/C=C/c3ccc(OCC)cc3)nc2n(CCC)c1=O [Compound 47, (E)-8-(4-ethoxystyryl)-1,3-dipropylxanthine] |  |  |  | > 100 mg/kg |  |  |  |  |
| CCCCOc1ccc(/C=C/c2nc3c([nH]2)c(=O)n(CCC)c(=O)n3CCC)cc1 [Compound 51, (E)-8-(4-butoxystyryl)-1,3-dipropylxanthine] |  |  |  | > 100 mg/kg |  |  |  |  |
| CCCn1c(=O)c2c(nc(/C=C/c3cc(C)c(OC)cc3C)n2C)n(CCC)c1=O [Compound 45, (E)-8-(4-methoxy-2,5-dimethylstyryl)-7-methyl-1,3-dipropylxanthine] |  |  |  | > 300 mg/kg |  |  |  |  |
| CCCn1c(=O)c2c(nc(/C=C/c3ccc(OC)c(Br)c3)n2C)n(CCC)c1=O [Compound 56, (E)-8-(3-bromo-4-methoxystyryl)-7-methyl-1,3-dipropylxanthine] |  |  |  | > 100 mg/kg |  |  |  |  |
| CCCn1c(=O)c2c(nc(/C=C/c3cc(OC)c(OC)cc3OC)n2C)n(CCC)c1=O [Compound 23, (E)-7-methyl-1,3-dipropyl-8-(2,4,5-trimethoxystyryl)xanthine] | 28% | 4 | 18 points | > 300 mg/kg |  |  |  |  |
| CCCn1c(=O)c2c(nc(/C=C/c3ccc(OC)cc3)n2C)n(CCC)c1=O [Compound 6, (E)-8-(4-methoxystyryl)-7-methyl-1,3-dipropylxanthine] | 24% | 3 | 19 points | > 300 mg/kg |  |  |  |  |
